Experimental data as given in ChEMBL document CHEMBL3232856, “Endomorphin analogues with mixed μ-opioid (MOP) receptor agonism/δ-opioid (DOP) receptor antagonism and lacking β-arrestin2 recruitment activity” (Bioorg Med Chem, 2014).
Activity calls are given as the source filed them. No cut-off for these calls is given here. Residues, ends and D or L forms follow the SMILES beside them.

Experiments:
[1] = molecular target: T1, Delta-type opioid receptor (Homo sapiens, UniProt P41143); conditions: HEK293, at 0.1 to 10 µM
Mu-type opioid receptor [2] = molecular target: T2, Mu-type opioid receptor (Homo sapiens, UniProt P35372); experiment: Potency index, ratio of DAMGO EC50 to compound EC50 for mu opioid receptor (unknown origin) by beta-arrestin-2 recruitment assay
Mu-type opioid receptor [3] = molecular target: T2, Mu-type opioid receptor; conditions: HEK293, at 1 µM
[4] = molecular target: T1, Delta-type opioid receptor; experiment: Agonist activity at GFP-fused delta opioid receptor (unknown origin) expressed in HEK293 cells assessed as recruitment of beta-arrestin-2 after 10 mins by BRET assay; type: functional, cell-based
[5] = molecular target: T1, Delta-type opioid receptor; conditions: HEK293, at 100 µM
[6] = molecular target: T3, Kappa-type opioid receptor (Homo sapiens, UniProt P41145); experiment: Agonist activity at GFP-fused kappa opioid receptor (unknown origin) expressed in HEK293 cells assessed as recruitment of beta-arrestin-2 after 10 mins by BRET assay; type: cell-based
Mu-type opioid receptor [7] = molecular target: Mu-type opioid receptor (Rattus norvegicus, UniProt P33535); experiment: Displacement of [3H]DAMGO from mu opioid receptor in Sprague-Dawley rat brain P2 synaptosomal membranes
[8] = molecular target: T1, Delta-type opioid receptor; conditions: HEK293, at 100 µM; remark: listed apart in the source
[9] = molecular target: Delta-type opioid receptor (Mus musculus, UniProt P32300); experiment: Agonist activity at delta opioid receptor in mouse vas deferens assessed as inhibition of electrically-stimulated muscle contraction; type: tissue-based
Mu-type opioid receptor [10] = molecular target: T2, Mu-type opioid receptor; experiment: Intrinsic efficacy at GFP-fused mu opioid receptor (unknown origin) expressed in HEK293 cells assessed as recruitment of beta-arrestin-2 after 10 mins by BRET assay relative to untreated control; type: cell-based; conditions: hek293, 10 min
[11] = molecular target: Delta-type opioid receptor (Rattus norvegicus, UniProt P33533); experiment: Displacement of [3H]deltorphin-2 from delta opioid receptor in Sprague-Dawley rat brain P2 synaptosomal membranes
[12] = molecular target: T3, Kappa-type opioid receptor; conditions: HEK293, at 0.1 to 10 µM
Mu-type opioid receptor [13] = molecular target: Mu-type opioid receptor (Cavia porcellus, UniProt P97266); experiment: Agonist activity at mu opioid receptor in guinea pig ileum assessed as inhibition of electrically-stimulated muscle contraction; type: tissue-based
Mu-type opioid receptor [14] = molecular target: T2, Mu-type opioid receptor; experiment: Agonist activity at GFP-fused mu opioid receptor (unknown origin) expressed in HEK293 cells assessed as recruitment of beta-arrestin-2 after 10 mins by BRET assay; type: cell-based
Mu-type opioid receptor [15] = molecular target: T2, Mu-type opioid receptor; conditions: HEK293, at 100 µM
[16] = molecular target: T1, Delta-type opioid receptor; experiment: Displacement of [3H]DPDPE from delta opioid receptor (unknown origin)
Mu-type opioid receptor [17] = molecular target: T2, Mu-type opioid receptor; experiment: Displacement of [3H]DAMGO from mu opioid receptor (unknown origin)
[18] = molecular target: T1, Delta-type opioid receptor; experiment: Agonist activity at delta opioid receptor (unknown origin) expressed in HEK293 cells assessed as inhibition of forskolin-induced cAMP accumulation after 30 mins; type: functional, cell-based
[19] = Displacement of [3H]DPDPE from delta opioid receptor in guinea pig brain membranes after 1 hr; type: cell membranes, Cavia porcellus, Membrane

T3 sequence (P41145 whole entry, the tested form may be a part): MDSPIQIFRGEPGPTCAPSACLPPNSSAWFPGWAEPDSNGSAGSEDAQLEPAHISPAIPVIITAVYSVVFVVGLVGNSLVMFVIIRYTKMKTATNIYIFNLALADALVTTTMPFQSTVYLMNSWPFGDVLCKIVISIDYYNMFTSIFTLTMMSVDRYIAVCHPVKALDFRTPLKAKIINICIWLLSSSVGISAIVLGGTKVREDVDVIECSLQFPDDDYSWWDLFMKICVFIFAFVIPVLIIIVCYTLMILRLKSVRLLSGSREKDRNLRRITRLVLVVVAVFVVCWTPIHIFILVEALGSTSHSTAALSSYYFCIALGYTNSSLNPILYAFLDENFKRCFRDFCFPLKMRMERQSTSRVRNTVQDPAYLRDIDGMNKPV
T2 sequence (P35372 whole entry): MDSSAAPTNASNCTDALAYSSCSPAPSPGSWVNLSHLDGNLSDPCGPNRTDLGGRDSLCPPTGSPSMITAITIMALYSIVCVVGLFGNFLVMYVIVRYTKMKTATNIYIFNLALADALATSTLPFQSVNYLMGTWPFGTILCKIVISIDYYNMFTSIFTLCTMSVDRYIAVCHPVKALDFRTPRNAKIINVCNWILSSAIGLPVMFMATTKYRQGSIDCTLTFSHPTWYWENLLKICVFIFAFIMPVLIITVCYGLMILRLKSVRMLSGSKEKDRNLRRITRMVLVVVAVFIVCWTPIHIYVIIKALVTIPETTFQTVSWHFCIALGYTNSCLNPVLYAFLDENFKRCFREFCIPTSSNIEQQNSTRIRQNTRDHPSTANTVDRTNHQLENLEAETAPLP
Delta-type opioid receptor (Rattus norvegicus, UniProt P33533), sequence (P33533 whole entry): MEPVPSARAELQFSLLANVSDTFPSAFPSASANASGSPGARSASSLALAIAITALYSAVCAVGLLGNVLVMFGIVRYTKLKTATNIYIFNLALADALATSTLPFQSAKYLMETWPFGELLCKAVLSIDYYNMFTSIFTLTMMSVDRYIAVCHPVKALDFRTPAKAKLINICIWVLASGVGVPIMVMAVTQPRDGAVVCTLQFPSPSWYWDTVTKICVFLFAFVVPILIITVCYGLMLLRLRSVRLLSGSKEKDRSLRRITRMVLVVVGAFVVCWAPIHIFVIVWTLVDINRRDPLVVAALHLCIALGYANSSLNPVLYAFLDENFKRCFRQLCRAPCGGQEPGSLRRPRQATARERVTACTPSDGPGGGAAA
Mu-type opioid receptor (Cavia porcellus, UniProt P97266), sequence (P97266 whole entry, the tested form may be a part): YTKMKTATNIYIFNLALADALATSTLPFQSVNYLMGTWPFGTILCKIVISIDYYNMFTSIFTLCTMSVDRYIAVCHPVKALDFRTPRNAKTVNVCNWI
T1 sequence (P41143 whole entry): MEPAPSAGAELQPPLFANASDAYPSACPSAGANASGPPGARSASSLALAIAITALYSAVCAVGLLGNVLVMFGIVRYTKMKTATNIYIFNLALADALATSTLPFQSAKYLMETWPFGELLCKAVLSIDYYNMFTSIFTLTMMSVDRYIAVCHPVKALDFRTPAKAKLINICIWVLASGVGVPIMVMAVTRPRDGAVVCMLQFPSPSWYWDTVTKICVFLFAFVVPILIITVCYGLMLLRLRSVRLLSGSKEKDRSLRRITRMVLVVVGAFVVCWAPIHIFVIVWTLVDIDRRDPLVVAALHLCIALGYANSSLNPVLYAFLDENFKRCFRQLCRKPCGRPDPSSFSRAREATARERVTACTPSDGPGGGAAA
Mu-type opioid receptor (Rattus norvegicus, UniProt P33535), sequence (P33535 whole entry): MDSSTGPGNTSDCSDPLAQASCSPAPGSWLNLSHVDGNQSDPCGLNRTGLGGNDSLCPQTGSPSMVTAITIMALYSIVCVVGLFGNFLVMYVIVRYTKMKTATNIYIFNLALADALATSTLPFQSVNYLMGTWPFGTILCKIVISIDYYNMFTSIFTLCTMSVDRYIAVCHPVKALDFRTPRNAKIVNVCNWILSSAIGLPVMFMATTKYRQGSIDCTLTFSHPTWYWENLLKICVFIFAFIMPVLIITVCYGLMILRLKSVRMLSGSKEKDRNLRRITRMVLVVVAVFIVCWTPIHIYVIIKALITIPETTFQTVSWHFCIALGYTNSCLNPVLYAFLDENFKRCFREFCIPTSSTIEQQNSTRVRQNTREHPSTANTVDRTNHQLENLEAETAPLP
Delta-type opioid receptor (Mus musculus, UniProt P32300), sequence (P32300 whole entry, the tested form may be a part): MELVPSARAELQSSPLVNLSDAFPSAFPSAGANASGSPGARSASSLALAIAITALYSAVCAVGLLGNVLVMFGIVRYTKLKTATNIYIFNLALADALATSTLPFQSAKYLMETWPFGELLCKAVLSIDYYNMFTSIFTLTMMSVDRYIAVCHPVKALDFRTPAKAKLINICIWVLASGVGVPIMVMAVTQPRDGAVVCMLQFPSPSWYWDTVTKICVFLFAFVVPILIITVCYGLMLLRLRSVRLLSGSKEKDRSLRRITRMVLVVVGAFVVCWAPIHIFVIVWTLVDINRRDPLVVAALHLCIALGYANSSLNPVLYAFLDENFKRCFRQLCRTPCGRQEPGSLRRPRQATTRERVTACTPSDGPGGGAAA

| SMILES | inhibition [1] | Ratio EC50 (Mu-type opioid receptor [2]) | inhibition (Mu-type opioid receptor [3]) | EC50 [4] | inhibition [5] | EC50 [6] | Ki (Mu-type opioid receptor [7]) [nM] | inhibition [8] | IC50 [9] [nM] | Ratio (Mu-type opioid receptor [10]) | Ki [11] [nM] | inhibition [12] | IC50 (Mu-type opioid receptor [13]) [nM] | EC50 (Mu-type opioid receptor [14]; read-out: EC50) [nM] | inhibition (Mu-type opioid receptor [15]) | EC50 (Mu-type opioid receptor [14]; hek293) | Ki [16] [nM] | Ki (Mu-type opioid receptor [17]) [nM] | IC50 [18] [nM] | Ki [19] [nM] |
| --- | --- | --- | --- | --- | --- | --- | --- | --- | --- | --- | --- | --- | --- | --- | --- | --- | --- | --- | --- | --- |
| Cc1cc(C)c(C[C@H](NC(=O)[C@@H]2CCCN2C(=O)[C@@H](N)Cc2c(C)cc(O)cc2C)C(N)=O)c(C)c1 | inactive | 20 | Active | Not Active | inactive | Not Active | 0.13 | inactive | > 10000 | 0.4 | 13.1 | inactive | 2.68 | 18.6 | – | – | – | – | – | – |
| Cc1cc(C)c(C[C@H](NC(=O)[C@H](Cc2ccccc2)NC(=O)[C@@H]2CCCN2C(=O)[C@@H](N)Cc2c(C)cc(O)cc2C)C(N)=O)c(C)c1 | inactive | – | Active | Not Active | inactive | Not Active | 0.37 | inactive | > 10000 | – | 24.5 | inactive | 66.7 | – | inactive | Not Active | – | – | – | – |
| Cc1cccc(C)c1C[C@H](NC(=O)[C@H](Cc1ccccc1)NC(=O)[C@@H]1CCCN1C(=O)[C@@H](N)Cc1c(C)cc(O)cc1C)C(N)=O | inactive | – | Active | Not Active | inactive | Not Active | 0.31 | inactive | > 10000 | – | 40 | inactive | 249 | – | inactive | Not Active | – | – | – | – |
| Cc1cc(C)c(C[C@H](NC(=O)[C@H](Cc2c(C)cc(C)cc2C)NC(=O)[C@@H]2CCCN2C(=O)[C@@H](N)Cc2c(C)cc(O)cc2C)C(N)=O)c(C)c1 | inactive | – | Active | Not Active | Active | Not Active | 0.47 | Active | > 10000 | – | 1.63 | inactive | 9.28 | – | – | Not Active | – | – | – | – |
| C[C@@H](NC(=O)[C@@H](N)Cc1ccc(O)cc1)C(=O)NCC(=O)N(C)[C@@H](Cc1ccccc1)C(=O)NCCO | – | – | Active | – | – | – | – | – | – | – | – | – | – | – | – | – | – | – | – | – |
| Oc1ccc2c3c1O[C@H]1c4oc5ccccc5c4C[C@@]4(O)[C@@H](C2)N(CC2CC2)CC[C@]314 | – | – | – | – | – | – | – | 50% | – | – | – | – | – | – | – | – | – | – | – | – |
| Cc1cc(O)cc(C)c1C[C@H](N)C(=O)N1CCC[C@H]1C(=O)N[C@@H](Cc1ccccc1)C(=O)N[C@@H](Cc1c[nH]c2ccccc12)C(N)=O (HELM PEPTIDE1{[Cc1cc(O)cc(C)c1C[C@H](N)C(=O)[*:2]].P.F.W.[am]}$$$$V2.0) | inactive | – | Active | Not Active | inactive | Not Active | 0.34 | inactive | > 10000 | – | 25.4 | inactive | 207 | – | inactive | Not Active | – | – | – | – |
| Cc1cc(O)cc(C)c1C[C@H](NC(=O)[C@H](Cc1ccccc1)NC(=O)[C@@H]1CCCN1C(=O)[C@@H](N)Cc1c(C)cc(O)cc1C)C(N)=O (HELM PEPTIDE1{[Cc1cc(O)cc(C)c1C[C@H](N)C(=O)[*:2]].P.F.[Cc1cc(O)cc(C)c1C[C@H](N[*:1])C(=O)[*:2]].[am]}$$$$V2.0) | inactive | – | Active | Not Active | inactive | Not Active | 0.28 | inactive | > 10000 | – | 87.2 | inactive | 44.6 | – | inactive | Not Active | – | – | – | – |
| Cc1cc(O)cc(C)c1C[C@H](N)C(=O)N1CCC[C@H]1C(=O)N[C@@H](Cc1ccccc1)C(=O)N[C@@H](Cc1ccc2ccccc2c1)C(N)=O (HELM PEPTIDE1{[Cc1cc(O)cc(C)c1C[C@H](N)C(=O)[*:2]].P.F.[O=C([C@H](Cc1ccc2ccccc2c1)N[*:1])[*:2]].[am]}$$$$V2.0) | inactive | – | Active | Not Active | inactive | Not Active | 0.81 | inactive | > 10000 | – | 23.2 | inactive | 40.2 | – | Active | Not Active | – | – | – | – |
| Cc1cc(O)cc(C)c1C[C@H](N)C(=O)N1CCC[C@H]1C(=O)N[C@@H](Cc1ccccc1)C(=O)N[C@@H](Cc1cccc2ccccc12)C(N)=O (HELM PEPTIDE1{[Cc1cc(O)cc(C)c1C[C@H](N)C(=O)[*:2]].P.F.[O=C([C@H](Cc1cccc2ccccc12)N[*:1])[*:2]].[am]}$$$$V2.0) | inactive | – | Active | Not Active | inactive | Not Active | 0.28 | inactive | > 10000 | – | 51.7 | inactive | 14.3 | – | – | Not Active | – | – | – | – |
| Cc1cc(O)cc(C)c1C[C@H](N)C(=O)N1CCC[C@H]1C(=O)N[C@@H](Cc1ccccc1)C(N)=O (HELM PEPTIDE1{[Cc1cc(O)cc(C)c1C[C@H](N)C(=O)[*:2]].P.F.[am]}$$$$V2.0) | – | – | – | – | – | – | – | – | 113 | – | – | – | 2.33 | – | – | – | 53.2 | 0.12 | – | – |
| Cc1cc(O)cc(C)c1C[C@H](N)C(=O)N1CCC[C@H]1C(=O)N[C@@H](Cc1c[nH]c2ccccc12)C(N)=O (HELM PEPTIDE1{[Cc1cc(O)cc(C)c1C[C@H](N)C(=O)[*:2]].P.W.[am]}$$$$V2.0) | Active | 60 | Active | Not Active | inactive | Not Active | 0.21 | inactive | > 10000 | 0.6 | 66.4 | Active | 10.4 | 6.3 | Active | – | – | – | < 100 | – |
| Cc1cccc(C)c1C[C@H](NC(=O)[C@@H]1CCCN1C(=O)[C@@H](N)Cc1c(C)cc(O)cc1C)C(N)=O (HELM PEPTIDE1{[Cc1cc(O)cc(C)c1C[C@H](N)C(=O)[*:2]].P.[Cc1cccc(C)c1C[C@H](N[*:1])C(=O)[*:2]].[am]}$$$$V2.0) | – | – | – | Not Active | – | Not Active | 0.15 | – | 745 | – | 33 | – | 0.274 | – | – | Not Active | – | – | – | – |
| Cc1cc(O)cc(C)c1C[C@H](N)C(=O)N1CCC[C@H]1C(=O)N[C@@H](Cc1ccc2ccccc2c1)C(N)=O (HELM PEPTIDE1{[Cc1cc(O)cc(C)c1C[C@H](N)C(=O)[*:2]].P.[O=C([C@H](Cc1ccc2ccccc2c1)N[*:1])[*:2]].[am]}$$$$V2.0) | inactive | – | Active | Not Active | inactive | Not Active | 16.9 | inactive | > 10000 | – | 68.3 | inactive | > 10000 | – | – | Not Active | – | – | – | – |
| Cc1cc(O)cc(C)c1C[C@H](N)C(=O)N1CCC[C@H]1C(=O)N[C@@H](Cc1cccc2ccccc12)C(N)=O (HELM PEPTIDE1{[Cc1cc(O)cc(C)c1C[C@H](N)C(=O)[*:2]].P.[O=C([C@H](Cc1cccc2ccccc12)N[*:1])[*:2]].[am]}$$$$V2.0) | – | – | – | Not Active | – | Not Active | 0.7 | – | 10000 | – | 121 | – | 4.63 | – | – | Not Active | – | – | – | – |
| CC(C)C[C@@H](NC(=O)[C@H](Cc1ccccc1)NC(=O)CNC(=O)[C@@H](C)NC(=O)[C@@H](N)Cc1ccc(O)cc1)C(=O)O [DADLE] | – | – | – | – | – | – | – | – | – | – | – | – | 13.4 | – | – | – | – | – | – | 0.3 |
